Where two headings read alike, the source gives them in different places.
Columns and labels:
[1] = molecular target: 6×HIS-tankyrase 1 (1091-1325) (Homo sapiens (Human), UniProt O95271); assay: biochemical; format: biochemical; settings: […] enzyme, 400 nM NAD, 60 minutes at room temperature; read-out: TNKS1 IP IC50
[2] = test system: total β-catenin in SW480 colorectal cells; assay: cells; format: cell-based; settings: Homo sapiens
Outline: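 SW480 cells in growth medium (MEM alpha, 10% heat-inactivated FBS, 10 mM HEPES) treated with a 10-point, 3-fold dilution series of TNKS inhibitor for 40–48 h at 37 °C. Lysates run on an MSD sandwich immunoassay for total β-catenin, read by electrochemiluminescence.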

[3] = test system: Axin2 in SW480 cells; assay: cells; format: cell-based; settings: Homo sapiens, read-out: Axin2 384 IF EC50 IP
Outline: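 SW480 cells treated 24 h at 37° C (0.5% DMSO final), fixed/permeabilized, immunostained for Axin2. ArrayScan imaging quantified ring-spot intensity; Axin2 accumulation expressed as percent of control, EC50 from concentration-response.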

[4] = test system: 8×TCF promoter-driven Firefly luciferase (Wnt reporter) in HEK-293 cells; assay: 2H9-STF assay, Wnt ligand activated HEK-293 assay in WT APC cellular context; format: cell-based; settings: Homo sapiens
Description: HEK-293 cells engineered with an 8×TCF promoter-driven Firefly (FF) luciferase gene (Wnt reporter) along with an SV40 promoter-driven Renilla (RN) luciferase gene (control reporter) were used to measure the potency of tankyrase compounds in the context of Wnt ligand activation in a wild-type (non-APC mutated) cellular background. The engineered HEK-293 cells were plated (25 μL) at a density of 40,000 cells/well in black, clear-bottom, 96-well View plates (PerkinElmer) in normal growth medium (DMEM with 10% FBS with no antibiotics). Tankyrase inhibitors (5 μL) were transferred to cells from a three-fold serially diluted compound plate. A 10-point dilution series was tested starting at a concentration (10 μM final concentration in assay). Column 6 contained only DMSO and served as the “HI” control. Cells and compounds were incubated together for 1 hour at 37° C. after which the Wnt3a ligand (pathway inducer) was added to all wells except column 12 which served as the “LO” control. Twenty microliters of diluted recombinant mouse Wnt3a (R & D Systems) was added to the cells for a final concentration of 200 ng/mL (5 nM which is the Wnt3a˜EC80) and the plates were incubated at 37° C. for 18 to 24 hours. The Dual-Glo Reagents (Promega) were added as directed by manufacturer to assay the FF and RN luciferase activity. Luciferase activity was measures using the EnVision multilabel plate reader (PerkinElmer).

[5] = molecular target: 6×HIS-tankyrase 2 (946-1162) (Homo sapiens (Human), UniProt Q9H2K2); assay: Tankyrase 2 biochemical assay (AlphaLisa, anti-PAR detection); settings: 4 nM enzyme, 250 nM NAD; read-out: TNKS2 IP IC50
Chain of 6×HIS-tankyrase 2 (946-1162) (Q9H2K2 946-1162): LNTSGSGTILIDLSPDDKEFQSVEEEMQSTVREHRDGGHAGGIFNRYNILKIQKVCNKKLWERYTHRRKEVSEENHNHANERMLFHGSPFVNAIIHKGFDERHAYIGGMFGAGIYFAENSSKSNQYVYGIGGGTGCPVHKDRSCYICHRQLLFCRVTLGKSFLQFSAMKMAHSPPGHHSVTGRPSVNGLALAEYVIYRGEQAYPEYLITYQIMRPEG

[6] = test system: 8×TCF promoter-driven Firefly luciferase (Wnt reporter) in DLD-1 colorectal cells; assay: DLD-1-STF assay, constitutively activated Wnt pathway in mutant APC cancer cell context; format: cell-based; settings: Homo sapiens
Description: DLD-1-STF Assay. Constitutively Activated Wnt Pathway Assay in Mutant APC Cancer Cell Context
DLD-1 colorectal cells engineered with an 8×TCF promoter-driven Firefly (FF) luciferase gene (Wnt reporter) along with an EF1a promoter-driven Renilla (RN) luciferase gene (control reporter) were used to measure the potency of tankyrase compounds in the context of the constitutively activated Wnt pathway due to mutated APC in colorectal cancer cells. The engineered DLD-1 cells were plated (45 μL) at a density of 10,000 cells/well in black, clear-bottom, 96-well View plates (PerkinElmer) in normal growth medium (RPMI with 10% FBS with no antibiotics). Tankyrase inhibitors (5 μL) were transferred to cells from a three-fold serially diluted compound plate. A 10-point dilution series was tested starting at a concentration (10 μM final concentration in assay). Column 6 contained only DMSO and served as the “HI” control. […] The plates were incubated at 37° C. for 40 to 48 hours. The Dual-Glo Reagents (Promega) were added as directed by manufacturer to assay the FF and RN luciferase activity. Luciferase activity was measures using the EnVision multilabel plate reader (PerkinElmer).

[7] = SW480 cells, 40 to 48 hours, top concentration 10 μM, read-out: SW480-Total β-Catenin IC50 IP
[8] = SW480, 24 h, SW480 cells, 24 hours
[9] = HEK293, HEK-293 reporter cells, 200 ng/mL mouse Wnt3a, 18 to 24 hours, read-out: 2H9-Wnt3a-STF-FF/RL * 100 IC50

Chain of 6×HIS-tankyrase 1 (1091-1325) (O95271 1091-1325): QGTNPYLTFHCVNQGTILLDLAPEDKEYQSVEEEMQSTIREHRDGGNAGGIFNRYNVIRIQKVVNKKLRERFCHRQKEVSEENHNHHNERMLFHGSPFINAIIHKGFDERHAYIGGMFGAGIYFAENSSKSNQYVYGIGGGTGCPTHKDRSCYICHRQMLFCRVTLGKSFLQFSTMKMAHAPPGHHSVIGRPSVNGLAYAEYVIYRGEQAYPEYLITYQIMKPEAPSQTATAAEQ

SMILES | IC50 [1] [nM] | IC50 [2, 7] [nM] | EC50 [3, 8] [µM] | other results
CC1(C)OC(=O)N([C@H]2CC[C@H](n3c(=O)[nH]c4ccccc43)CC2)C1c1ccccc1 (stereo partly drawn) [Example 35, (R+S) 5,5-dimethyl-3-((1r,4r)-4-(2-oxo-2,3-dihydro-1H-benzo[d]imidazol-1-yl)cyclohexyl)-4-phenyloxazolidin-2-one] | 11.8 | 1330 | 6.69 | IC50 [4, 9]: 543 nM
CC1(C)OC(=O)N([C@H]2CC[C@H](n3c(=O)[nH]c4cccnc43)CC2)[C@H]1c1ccccc1 [Example 37, (S)-5,5-dimethyl-3-((1r,4S)-4-(2-oxo-1H-imidazo[4,5-b]pyridin-3(2H)-yl)cyclohexyl)-4-phenyloxazolidin-2-one] | – | 517 | 3.58 | IC50 [4, 9]: 183 nM
CC1(C)OC(=O)N(c2ccc(-c3cc(-c4ncccn4)c[nH]c3=O)cc2)[C@H]1c1ccccc1 [Example 4, (S)-5,5-Dimethyl-3-(4-(2-oxo-5-(pyrimidin-2-yl)-1,2-dihydropyridin-3-yl)phenyl)-4-phenyloxazolidin-2-one] | 76.9 | – | – | IC50 [5]: 65.9 nM; IC50 ([2]; SW480, read-out: SW480-Total β-Catenin IC50 IP): 750 nM; EC50 ([3]; SW480, 24 h): 2.84 µM; IC50 ([4]; HEK293, read-out: 2H9-Wnt3a-STF-FF/RL * 100 IC50): 290 nM
CC1(C)OC(=O)N(c2ccc(-c3cnc(N)c(-c4ncc(F)cn4)c3)cc2)[C@H]1c1ccccc1 [Example 64, (S)-3-(4-(6-amino-5-(5-fluoropyrimidin-2-yl)pyridin-3-yl)phenyl)-5,5-dimethyl-4-phenyloxazolidin-2-one] | 85 | 293 | 3.23 | IC50 [5]: 48.3 nM
CC1(C)OC(=O)N([C@H]2CC[C@H](C(=O)Nc3cccc4cccnc34)CC2)[C@H]1c1ccccc1 [Example 32, (1S,4r)-4-((S)-5,5-dimethyl-2-oxo-4-phenyloxazolidin-3-yl)-N-(quinolin-8-yl)cyclohexanecarboxamide] | – | – | – | IC50 [4, 9]: 92.8 nM
CC1(C)OC(=O)N([C@H]2CC[C@H](n3c(=O)[nH]c4cc(C#N)ccc43)CC2)[C@H]1c1ccccc1 [Example 47, 1-((1S,4r)-4-((S)-5,5-dimethyl-2-oxo-4-phenyloxazolidin-3-yl)cyclohexyl)-2-oxo-2,3-dihydro-1H-benzo[d]imidazole-5-carbonitrile] | – | 53.7 | – | EC50 ([3]; SW480 cells, 24 hours): 0.0729 µM; IC50 ([6]; DLD-1, read-out: DLD1-STF-FF/RL * 100 IC50): 12 nM
CC1(C)OC(=O)N(c2ccc(-c3cnc(N)c(-c4ccc5nncn5n4)c3)cc2)[C@H]1c1ccccc1 [Example 12, (S)-3-(4-(5-([1,2,4]triazolo[4,3-b]pyridazin-6-yl)-6-aminopyridin-3-yl)phenyl)-5,5-dimethyl-4-phenyloxazolidin-2-one] | 52.1 | 212 | – | IC50 [5]: 49.3 nM
CC1(C)OC(=O)N([C@H]2CC[C@H](n3c(=O)[nH]c4cnccc43)CC2)[C@H]1c1ccccc1 [Example 23, (S)-5,5-dimethyl-3-((1r,4S)-4-(2-oxo-2,3-dihydro-1H-imidazo[4,5-c]pyridin-1-yl)cyclohexyl)-4-phenyloxazolidin-2-one] | – | 143 | 0.231 | IC50 ([6]; DLD-1 reporter cells, 40 to 48 hours, read-out: DLD1-STF-FF/RL * 100 IC50): 44 nM
CC1(C)OC(=O)N([C@H]2CC[C@H](NC(=O)c3cccc4cccnc34)CC2)[C@@H]1c1ccccc1 (single isomer, unassigned) [Example 28] | – | – | – | IC50 [4, 9]: 113 nM
CC1(C)OC(=O)N(c2ccc(C(=O)Nc3cccc4cccnc34)cc2)[C@H]1c1cccnc1 [Example 11, (S)-4-(5,5-dimethyl-2-oxo-4-(pyridin-3-yl)oxazolidin-3-yl)-N-(quinolin-8-yl)benzamide] | 392 | 1520 | 7.06 | –
CC1(C)OC(=O)N(C2CC=C(c3cnc(N)c(-c4ncccn4)c3)CC2)C1c1ccccc1 (stereo not drawn) [Example 131, 3-(4-(6-amino-5-(pyrimidin-2-yl)pyridin-3-yl)cyclohex-3-en-1-yl)-5,5-dimethyl-4-phenyloxazolidin-2-one] | 16 | 362 | 1.03 | –
CC1(C)OC(=O)N(c2ccc(-c3cc(-c4cccnc4)cnc3F)cc2)[C@H]1c1ccccc1 [Example 117, (S)-3-(4-(6-fluoro-[3,3′-bipyridin]-5-yl)phenyl)-5,5-dimethyl-4-phenyloxazolidin-2-one] | 193 | 1050 | 5.74 | –
CC1(C)OC(=O)N([C@H]2CC[C@H](c3cnc4[nH]c(=O)n(-c5ncccn5)c4c3)CC2)[C@@H]1c1ccccc1 (single isomer, unassigned) [Example 14] | 26.8 | 923 | 1.03 | –
CC1(C)OC(=O)N(c2ccc(-c3cc(-c4ccccn4)c[nH]c3=O)cc2)[C@H]1c1ccccc1 [Example 115, (S)-5,5-dimethyl-3-(4-(6′-oxo-1′,6′-dihydro-[2,3′-bipyridin]-5′-yl)phenyl)-4-phenyloxazolidin-2-one] | 95.3 | 1010 | 4.38 | –
COc1cccc([C@H]2N(c3ccc(C(=O)Nc4cccc5cccnc45)cc3)C(=O)OC2(C)C)c1 [Example 106, (R)-4-(4-(3-Methoxyphenyl)-5,5-dimethyl-2-oxooxazolidin-3-yl)-N-(quinolin-8-yl)benzamide] | 1880 | 6650 | > 25 | –
CC1(C)OC(=O)N(c2ccc(-c3ccc[nH]c3=O)cc2)[C@H]1c1ccccc1 [Example 119, (S)-5,5-dimethyl-3-(4-(2-oxo-1,2-dihydropyridin-3-yl)phenyl)-4-phenyloxazolidin-2-one] | 1350 | > 10000 | > 25 | –
CC1(C)OC(=O)N([C@H]2CC[C@H](N3Cc4cc(C#N)ccc4NC3=O)CC2)[C@H]1c1ccccc1 [Example 62, 3-((1S,4r)-4-((S)-5,5-dimethyl-2-oxo-4-phenyloxazolidin-3-yl)cyclohexyl)-2-oxo-1,2,3,4-tetrahydroquinazoline-6-carbonitrile] | 7.63 | 438 | 0.147 | –
CC1(C)OC(=O)N([C@H]2CC[C@H](c3cnc(N)c(Nc4ncccn4)c3)CC2)[C@@H]1c1ccccc1 [Example 13, (S)-3-((1r,4S)-4-(6-Amino-5-(pyrimidin-2-ylamino)pyridin-3-yl)cyclohexyl)-5,5-dimethyl-4-phenyloxazolidin-2-one] | 2060 | > 10000 | > 25 | –

— patent publication US9340549B2, “Oxazolidinone compounds and derivatives thereof” (priority 2012, dated 2016)
